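96-well plates; 48 h exposure; 5 concentrations. Endpoints by linear interpolation between flanking doses. Not reached: highest tested concentration assigned. The concentration for full growth arrest is given as TGI.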
Experiments:
Assay in all cases: DTP human tumour cell line panel, 48 h
DMS 273 small cell lung = tested on: DMS 273 small cell lung
HT29 colon = tested on: HT29 colon
SN12C renal = tested on: SN12C renal
COLO 205 colon = tested on: COLO 205 colon
DMS 114 small cell lung = tested on: DMS 114 small cell lung
RXF 393 renal = tested on: RXF 393 renal
UO-31 renal = tested on: UO-31 renal
A549 NSCLC = tested on: A549 NSCLC
SK-MEL-28 melanoma = tested on: SK-MEL-28 melanoma
UACC-62 melanoma = tested on: UACC-62 melanoma
LOX IMVI melanoma = tested on: LOX IMVI melanoma
TK-10 renal = tested on: TK-10 renal
OVCAR-5 ovarian = tested on: OVCAR-5 ovarian
HOP-18 NSCLC = tested on: HOP-18 NSCLC
K-562 leukemia = tested on: K-562 leukemia
MOLT-4 leukemia = tested on: MOLT-4 leukemia
ACHN renal = tested on: ACHN renal
IGROV1 ovarian = tested on: IGROV1 ovarian
OVCAR-4 ovarian = tested on: OVCAR-4 ovarian
OVCAR-8 ovarian = tested on: OVCAR-8 ovarian
LXFL 529 NSCLC = tested on: LXFL 529 NSCLC
HCC-2998 colon = tested on: HCC-2998 colon
NCI-H522 lung = tested on: NCI-H522 lung
NCI-H23 lung = tested on: NCI-H23 lung
786-0 renal = tested on: 786-0 renal
CAKI-1 renal = tested on: CAKI-1 renal
CCRF-CEM leukemia = tested on: CCRF-CEM leukemia
SNB-78 CNS = tested on: SNB-78 CNS
HOP-92 NSCLC = tested on: HOP-92 NSCLC
DLD-1 colon = tested on: DLD-1 colon
HCT-116 colon = tested on: HCT-116 colon
KM20L2 colon = tested on: KM20L2 colon
A498 renal = tested on: A498 renal
M19-MEL melanoma = tested on: M19-MEL melanoma
OVCAR-3 ovarian = tested on: OVCAR-3 ovarian
KM12 colon = tested on: KM12 colon
SK-OV-3 ovarian = tested on: SK-OV-3 ovarian
NCI-H460 lung = tested on: NCI-H460 lung
M14 melanoma = tested on: M14 melanoma
MALME-3M melanoma = tested on: MALME-3M melanoma
HCT-15 colon = tested on: HCT-15 colon
SNB-75 CNS = tested on: SNB-75 CNS
U251 CNS = tested on: U251 CNS
SF-268 CNS = tested on: SF-268 CNS
HL-60(TB) leukemia = tested on: HL-60(TB) leukemia
SK-MEL-2 melanoma = tested on: SK-MEL-2 melanoma
UACC-257 melanoma = tested on: UACC-257 melanoma
RPMI-8226 leukemia = tested on: RPMI-8226 leukemia
NCI-H226 lung = tested on: NCI-H226 lung
SW-620 colon = tested on: SW-620 colon
SK-MEL-5 melanoma = tested on: SK-MEL-5 melanoma
SF-539 CNS = tested on: SF-539 CNS
SNB-19 CNS = tested on: SNB-19 CNS
SF-295 CNS = tested on: SF-295 CNS
HOP-62 NSCLC = tested on: HOP-62 NSCLC
EKVX NSCLC = tested on: EKVX NSCLC
SR leukemia = tested on: SR leukemia

Measured: TGI

CCOC(=O)N1CCN(P(=O)(Nc2ccc3nc(NC(=O)OC)[nH]c3c2)Oc2ccccc2)CC1 (configuration not stated)
not listed: SK-MEL-5 melanoma | SF-539 CNS | SNB-19 CNS | SF-295 CNS | HOP-62 NSCLC | EKVX NSCLC | SR leukemia
> 100 µM: all other assays above

CCC1=C(C(C)=O)[C@@H]2CCCCC(C(=O)OC)[C@@H]2C1=O (some centres not stated)
not listed: LOX IMVI melanoma | OVCAR-3 ovarian | SR leukemia
> 100 µM: all other assays above

CC(=O)Nc1ccc(-c2nnc(SCC(=O)Nc3ccccc3)o2)cc1
not listed: HCC-2998 colon | A498 renal | SNB-19 CNS | EKVX NSCLC
> 100 µM: all other assays above

— PubChem BioAssay (NCI)
